One series has as its system Candida albicans. Nature of the series: Minimum inhibitory concentration (MIC), serial dilution in broth, Candida albicans. The series is classed as cell-based. The following applies: 120 h, read-out: MIC, A = Candida albicans. As to the method:
(§1) Solutions of the experimental compounds in dimethyl sulfoxide and an aqueous solution of sodium pyrithione were serially diluted in nutrient broth (Tryptic Soy Broth for bacteria and Sabouraud Dextrose Broth for fungi) in microtiter plates. Equal volumes of a broth suspension of bacteria (10^6 CFU/ml) or fungi (10^5 cells or spores/ml) were added to each dilution, and the plates were incubated at 37° C. (bacteria and yeast) or 28° C. (molds). Bacteria, yeast, and molds were incubated two, five, and seven days respectively before determining the highest inhibitory dilution.

The next series relates to Aureobasidium pullulans. Nature of the series: Minimum inhibitory concentration (MIC), serial dilution in broth, Aureobasidium pullulans. The series is classed as cell-based. As to conditions: 168 h, read-out: MIC, B = Aureobasidium pullulans. The method, then: as §1
The next series concerns Aspergillus niger. As to the kind of experiment: Minimum inhibitory concentration (MIC), serial dilution in broth, Aspergillus niger. Format: cell-based. The following applies: 168 h, read-out: MIC, C = Aspergillus niger. The method, then: as §1
The subject of a further series is Fusarium. As to the kind of experiment: Minimum inhibitory concentration (MIC), serial dilution in broth, Fusarium. The series is classed as cell-based. The following applies: 168 h, read-out: MIC, D = Fusarium. The method, then:
as §1

A short description of series [1]: UV stability (photolysis in aqueous solution, immersion well photochemical apparatus). Format: physicochemical. As to the method:
The UV stability of IIa was evaluated using a immersion well photochemical apparatus equipped with a Hanovia 450 Watt medium pressure lamp. An aqueous solution (100 ppm in KH2 PO4 buffer pH=7) was irradiated at 25° C. with air agitation for a period of 110 minutes. The rate of photolysis was monitored by UV spectroscopy. Aliquots were taken through a side port of the apparatus into an amber vial and the absorption at 325 nm was measured. A sodium pyrithione aqueous solution (i.e., sodium OMADINE® biocide) was irradiated similarly for comparative purposes.

Where [2] appears, read: yeast, 37° C., five days, Sabouraud Dextrose Broth.
Where [3] appears, read: fungi, Sabouraud Dextrose Broth, molds: 28° C., seven days.
The mark [4] stands for this setting: molds: 28° C., seven days, Sabouraud Dextrose Broth.

≈ marks a conversion by molar mass, not a printed value. Read-outs that look alike come from different tables or passages of the source.

Consider `Cn1c(=O)c2ccccc2n(O)c1=S` [Compound IIa, 1-HYDROXY-3-METHYL-2-THIOXO-1,2-DIHYDROQUINAZOLINE-4(3H)-ONE], for which the minimum inhibitory concentration (MIC) – broadly, the least concentration at which growth counts as inhibited – in the series with Candida albicans (setting [2]) is less than 2 µg/mL; in the series with Aureobasidium pullulans (setting [3]) it was less than 2 µg/mL; in the series with Aspergillus niger (setting [4]), less than 2 µg/mL; in the series on Fusarium (setting [4]), 128 µg/mL (≈ 615 µM). The half-life in series [1] (first order, 100 ppm in KH2PO4 buffer pH=7, 25° C., 450 Watt medium pressure lamp, absorption at 325 nm, read-out: photodecomposition T1/2) was found to be 55 min.

As to `O=c1[nH]c(=S)n(O)c2ccccc12` [Compound IIg], the MIC with Candida albicans (setting [2]) was 64 µg/mL (≈ 330 µM); in the series on Aureobasidium pullulans (setting [3]) it was 128 µg/mL (≈ 659 µM); in the series on Aspergillus niger (setting [4]), 1020 µg/mL (≈ 5270 µM); in the series on Fusarium (setting [4]), 512 µg/mL (≈ 2640 µM).

Take `C=CC(=O)On1c(=S)n(C)c(=O)c2ccccc21` [Compound IIj]: the MIC in the series with Candida albicans (setting [2]) is 4 µg/mL (≈ 15.3 µM); in the series on Aureobasidium pullulans (setting [3]) it was 4 µg/mL (≈ 15.3 µM); in the series with Aspergillus niger (setting [4]) it was 8 µg/mL (≈ 30.5 µM); in the series on Fusarium (setting [4]), 16 µg/mL (≈ 61 µM).

Take `Cn1c(=O)c2ccccc2n(O)c1=S.[Na]` [IIa-Na, 1-hydroxy-3-methyl-2-thioxo-1,2-dihydroquinazoline-4(3H)-one, sodium salt]: in the series on Fusarium, the minimum inhibitory concentration (MIC) worked out at 4 µg/mL.

On to `Cn1c(=O)c2ccc(Cl)cc2n(O)c1=S` [IIc], for which the MIC is less than 2 µg/mL with Candida albicans (setting [2]), less than 2 µg/mL in the series on Aureobasidium pullulans (setting [3]), 4 µg/mL (≈ 16.5 µM) with Aspergillus niger (setting [4]) and 64 µg/mL (≈ 264 µM) with Fusarium (setting [4]).

With `Cc1ccc2c(c1)c(=O)n(C)c(=S)n2O` [IId], the MIC in the series on Candida albicans (setting [2]) is less than 2 µg/mL; in the series with Aureobasidium pullulans (setting [3]), 4 µg/mL (≈ 18 µM); in the series with Aspergillus niger (setting [4]) it was less than 2 µg/mL; in the series on Fusarium (setting [4]), 128 µg/mL (≈ 576 µM).

`O=c1c2ccccc2n(O)c(=S)n1-c1ccccc1` [IIe]: the minimum inhibitory concentration (MIC) in the series on Candida albicans (setting [2]) turned out to be 16 µg/mL (≈ 59.2 µM); in the series on Aureobasidium pullulans (setting [3]), 16 µg/mL (≈ 59.2 µM); with Aspergillus niger (setting [4]), 32 µg/mL (≈ 118 µM); in the series with Fusarium (setting [4]) it was 64 µg/mL (≈ 237 µM).

On to `C=CCn1c(=O)c2ccccc2n(O)c1=S` [IIf], for which the minimal inhibitory concentration (MIC) in the series with Candida albicans (setting [2]) amounted to 4 µg/mL (≈ 17.1 µM); in the series with Aureobasidium pullulans (setting [3]) it was 16 µg/mL (≈ 68.3 µM); with Aspergillus niger (setting [4]), 16 µg/mL (≈ 68.3 µM); in the series on Fusarium (setting [4]) it was 8 µg/mL (≈ 34.1 µM).

Take `COn1c(=S)n(C)c(=O)c2ccccc21` [IIh]: the MIC is 256 µg/mL (≈ 1150 µM) with Candida albicans (setting [2]), 512 µg/mL (≈ 2300 µM) in the series with Aureobasidium pullulans (setting [3]), 512 µg/mL (≈ 2300 µM) in the series on Aspergillus niger (setting [4]) and 512 µg/mL (≈ 2300 µM) with Fusarium (setting [4]).

Turning to `CC(=O)On1c(=S)n(C)c(=O)c2ccccc21` [IIi, 1-ACETOYLOXY-3-METHYL-2-THIOXO-1,2-DIHYDROQUINAZOLINE-4(3H)-ONE], the MIC with Candida albicans (setting [2]) is 2 µg/mL (≈ 7.99 µM).

Turning to `Cn1c(=O)c2ccccc2n(OC(=O)c2ccccc2)c1=S` [IIk], the MIC stood at 512 µg/mL (≈ 1640 µM) in the series with Candida albicans (setting [2]), 256 µg/mL (≈ 820 µM) with Aureobasidium pullulans (setting [3]), 512 µg/mL (≈ 1640 µM) in the series with Aspergillus niger (setting [4]) and 512 µg/mL (≈ 1640 µM) in the series on Fusarium (setting [4]).

In the case of `C=C(C)C(=O)On1c(=S)n(C)c(=O)c2ccccc21` [IIl], the MIC came to 128 µg/mL (≈ 463 µM) in the series with Candida albicans (setting [2]), 4 µg/mL (≈ 14.5 µM) in the series on Aureobasidium pullulans (setting [3]), 32 µg/mL (≈ 116 µM) in the series on Aspergillus niger (setting [4]) and 512 µg/mL (≈ 1850 µM) in the series with Fusarium (setting [4]).

For the compound `Cn1c(=O)c2ccccc2n(OC(=O)O)c1=S` [IIm], the minimal inhibitory concentration (MIC) was determined as 4 µg/mL (≈ 15.9 µM) in the series with Candida albicans (setting [2]), 8 µg/mL (≈ 31.7 µM) in the series with Aureobasidium pullulans (setting [3]), 8 µg/mL (≈ 31.7 µM) with Aspergillus niger (setting [4]) and 16 µg/mL (≈ 63.4 µM) in the series with Fusarium (setting [4]).

`CNC(=O)On1c(=S)n(C)c(=O)c2ccccc21` [IIn, 1-N-METHYLCARBAMATE-3-METHYL-2-THIO-1,2-DIHYDROQUINAZOLINE-4(3H)-ONE]: the minimal inhibitory concentration (MIC) was determined as 4 µg/mL (≈ 15.1 µM) in the series with Candida albicans, 8 µg/mL (≈ 30.2 µM) in the series on Aureobasidium pullulans, 8 µg/mL (≈ 30.2 µM) with Aspergillus niger and 16 µg/mL (≈ 60.3 µM) with Fusarium.

Regarding `CCOC(=O)c1ccccc1N(O)C(=S)NC` [Ib], the MIC was 8 µg/mL (≈ 31.5 µM) in the series on Candida albicans (setting [2]), 8 µg/mL (≈ 31.5 µM) in the series with Aureobasidium pullulans (setting [3]), 8 µg/mL (≈ 31.5 µM) in the series on Aspergillus niger (setting [4]) and 128 µg/mL (≈ 503 µM) in the series on Fusarium (setting [4]).

In the case of `CNC(=S)N(O)c1cc(Cl)ccc1C(=O)OC` [Ic], the MIC is less than 2 µg/mL in the series on Candida albicans (setting [2]), 4 µg/mL (≈ 14.6 µM) with Aureobasidium pullulans (setting [3]), 8 µg/mL (≈ 29.1 µM) in the series on Aspergillus niger (setting [4]) and 128 µg/mL (≈ 466 µM) in the series with Fusarium (setting [4]).

Consider `CNC(=S)N(O)c1ccc(C)cc1C(=O)OC` [Id], for which the minimum inhibitory concentration (MIC) is 8 µg/mL (≈ 31.5 µM) with Candida albicans (setting [2]), 8 µg/mL (≈ 31.5 µM) in the series on Aureobasidium pullulans (setting [3]), 8 µg/mL (≈ 31.5 µM) in the series with Aspergillus niger (setting [4]) and 512 µg/mL (≈ 2010 µM) in the series with Fusarium (setting [4]).

As to `CCOC(=O)c1ccccc1N(O)C(=S)Nc1ccccc1` [Ie], the MIC came to 16 µg/mL (≈ 50.6 µM) in the series with Candida albicans (setting [2]), 32 µg/mL (≈ 101 µM) in the series with Aureobasidium pullulans (setting [3]), 64 µg/mL (≈ 202 µM) with Aspergillus niger (setting [4]) and 64 µg/mL (≈ 202 µM) in the series on Fusarium (setting [4]).

Consider `C=CCNC(=S)N(O)c1ccccc1C(=O)OCC` [If], for which the minimum inhibitory concentration (MIC) was determined as 4 µg/mL (≈ 14.3 µM) with Candida albicans (setting [2]), 16 µg/mL (≈ 57.1 µM) with Aureobasidium pullulans (setting [3]), 16 µg/mL (≈ 57.1 µM) in the series with Aspergillus niger (setting [4]) and 16 µg/mL (≈ 57.1 µM) with Fusarium (setting [4]).

For `On1ccccc1=S` [sodium pyrithione, reference compound], the “photodecomposition time (decomposed in)” value in series [1] (aqueous solution, same conditions as IIa (pH=7, 25° C., 450 Watt lamp)) came to 15 s.
